The values that follow come from US4666908A, “5-Substituted pyrazolo[4,3-d]pyrimidine-7-ones and methods of use” (Warner-Lambert Company, priority 1985, dated 1987).

Test [1] has as its system Type 1 Phosphodiesterase. Description: Phosphodiesterase (PDE) Inhibition, Type 1 Phosphodiesterase. In kind it is biochemical, bovine (coronary arteries). Conditions: Type 1 PDE, at 10^-5 M; for % Inhibition of hydrolysis of 3H-cAMP: substrate 3H-cAMP 1.0 μM; for % Inhibition of hydrolysis of 3H-cGMP: substrate 3H-cGMP 1.0 μM. The source says:
(§1) The method of Thompson, et al (Thompson, W. J., Terasaki, W. L., Epstein, P. M., Strada, S. J., Adv. Cyclic Nucleotide Res., 10:69-92, 1979), with minor modifications, was used to isolate phosphodiesterases from vascular smooth muscle. Bovine coronary arteries (right, anterior descending, and left circumflex arteries) from hearts obtained from a local slaughterhouse were used for these studies. Arteries from two hearts were used for each isolation. Hearts were kept on ice and the arteries were dissected within two hours after the animals were sacrificed. After removing all fat and connective tissue, the arteries were everted, cut into cubes with a single edge razor blade and homogenized with a Brinkman Polytron three times at a rheostat setting of 10.0 in four volumes of the PDE isolation buffer (10 mM Tris-HCl/pH 7.5, 2 mM MgCl2, and 1 mM dithiothreitol). The resulting homogenate was sonicated (30 sec/ml homogenate) and then centrifuged at 30,000 xg for 20 minutes. This and all subsequent procedures were performed at 4° C. The resulting supernatant was filtered through four layers of gauze, and applied to a DEAE-cellulose column (30×1.5 cm), prepared as described by Cheung (Cheung, W. Y., Biochim. Biophys. Acta, 191:303-315, 1969), and equilibrated with freshly prepared 70 mM sodium acetate/5 mM 2-mercaptoethanol (pH 6.5). The column was then washed with 2-3 bed volumes of sodium acetate/2-mercaptoethanol, after which the phosphodiesterases were eluted from the column using a continuous 70-1,000 mM sodium acetate gradient (pH 6.5, containing 5 mM 2-mercaptoethanol; total volume 400 ml). The flow rate was approximately equal to 25 ml/hr. Eight ml fractions were collected and assayed for cyclic AMP- and cyclic GMP-phosphodiesterase activity in the presence and absence of 0.1 units of calmodulin and 10 mM CaCl2. Appropriate fractions were pooled and dialyzed against 70 mM sodium acetate/5 mM 2-mercaptoethanol for 20 hours.
(§2) Following complete separation, the combined phosphodiesterase fractions were concentrated to 14% of the original volume using an Amicon ultrafiltration cell fitted with a UM-10 membrane, according to the method of Wells, et al (Wells, J. N., Baird, C. E., Wu, Y. J., Hardman, J. G., Biochim. Biophys. Acta, 384:430-442, 1975). Following concentration, the protein was then diluted to 65% with ethylene glycol monoethyl ether, and stored at -20° C.
(§3) Phosphodiesterase activity was measured as described previously (Weishaar, P. E., Quade, M., Boyd, D., Schenden, J., Mark, S. S., Kaplan, H. R., Drug Devel. Res., 3:517-534, 1983), in a reaction medium containing 40 mM Tris-HCl (pH 8.0), 5 mM MgCl and 4 mM 2-mercaptoethanol. Unless otherwise noted, the concentration of substrate (^3 H-cyclic AMP or ^3 H-cyclic GMP) was 1.0 μM. All agents examined were dissolved in dimethyl sulfoxide (DMSO). Final concentration of the reaction medium was either 2.5% (cardiac and platelet studies) or 1.25% (smooth muscle studies). This concentration of DMSO produced an approximately 10% inhibition of enzyme activity.

Test [2] concerns pentobarbital-anesthetized dog. Description: In Vivo Myocardial Inotropic Activity in Anesthetized Dog (CVAD). Conditions: for change in vivo at 0.31 mg/kg: 0.31 mg/kg IV; for change in vivo at 1 mg/kg: 1.00 mg/kg IV; for change in vivo at 0.3 mg/kg: 0.30 mg/kg IV. Details: species or system dog (adult mongrel). The procedure:
This test procedure is described in the following paragraphs.
This screen consists of determining the effects of increasing intravenous doses of compound on mycardial contractility (dP/dt max of left ventricular blood pressure), heart rate, and aortic blood pressure of the pentobarbital-anesthetized dog.
Adult mongrel dogs of either sex are anesthetized with pentobarbital, 35 mg/kg, IV, and are subsequently maintained under anesthesia with a continuous infusion of pentobarbital, 3.5 mg/kg/hour. The trachea is intubated but the animals are permitted to breathe spontaneously. A cannula is inserted into the femoral vein for administrating test agents. A Millar catheter tip pressure transducer or a fluid filled catheter is inserted into the ascending aorta via the femoral artery for measuring aortic blood pressure. A Millar catheter tip pressure transducer is passed into the left ventricle via the left carotid artery for measuring left ventricular blood pressure. Needle electrodes are placed subcutaneously for recording a lead II electrocardiogram (ECG).
Left ventricular and aortic blood pressures are recorded on a strip chart recorder. Heart rate, using a biotachometer triggered from the R wave of the ECG, and the first derivative of left ventricular blood pressure (dP/dt), obtained with a differentiator amplifier coupled to the corresponding pressure amplifier, are also recorded. A period of at least 30 minutes is utilized to obtain control data prior to administration of test compound.
Ethanol or dimethylacetamide can be used as solvents if adequate dilutions can be made. Appropriate vehicle controls are administered when needed.
Each dose of the test compound is administered in a volume of […] over a period of one minute.

Test [3] deals with Type 3 Phosphodiesterase. Briefly: Phosphodiesterase (PDE) Inhibition, Type 3 Phosphodiesterase. In kind it is biochemical, bovine (coronary arteries). Conditions: Type 3 PDE, at 10^-5 M, substrate 3H-cAMP 1.0 μM.
Description: as §1, §2, §3

Test [4] deals with T1, adenosine A1 receptor (Rattus norvegicus, UniProt P25099).
T1 construct: Whole brain minus cerebellum and brainstem from male Long Evans rats; from tissue; host or cells: whole brain minus cerebellum and brainstem, male Long Evans rats (membranes)
T1 sequence (P25099 1-326): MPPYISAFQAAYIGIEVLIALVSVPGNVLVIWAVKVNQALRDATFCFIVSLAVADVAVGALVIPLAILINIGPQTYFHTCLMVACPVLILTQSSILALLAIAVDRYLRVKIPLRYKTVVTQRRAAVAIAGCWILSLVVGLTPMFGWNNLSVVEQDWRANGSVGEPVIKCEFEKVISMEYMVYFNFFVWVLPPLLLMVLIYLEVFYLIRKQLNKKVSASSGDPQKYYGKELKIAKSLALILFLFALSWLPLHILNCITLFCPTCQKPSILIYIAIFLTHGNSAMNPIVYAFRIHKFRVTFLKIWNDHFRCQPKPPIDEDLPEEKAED
Briefly: Adenosine Receptor Binding - A1 Receptor Affinity (RBA1), [3H]-N6-cyclohexyladenosine displacement. Conditions: [3H]-CHA 1.0 nM, rat brain membranes, 25° C., one hour; read-out: RBA-1, IC50 for adenosine A1 receptor affinity. The procedure: Whole brain minus cerebellum and brainstem from male Long Evans rats (150-200 g) was homogenized in 30 volumes of ice-cold 0.05M Tris-HCl buffer pH 7.7 using a Brinkman Polytron PT-10, (setting number 6 for 20 seconds) and centrifuged for ten minutes at 20,000×g (Sorvall RC-2), 4° C. The supernatant was discarded, and the pellet was resuspended and centrifuged as before. […] The homogenate was again centrifuged, and the final pellet was resuspended in ice-cold 0.05 M Tris-HCl buffer pH 7.7 to a concentration of 20 mg/ml original wet tissue weight and used immediately. […] Incubation volume was 2 ml. […] The filters were rinsed three times with 5 ml of ice cold 0.05 M Tris-HCl buffer pH 7.7. The radio-labeled ligand retained on the filter was measured by liquid scintillation spectrophotometry after shaking the filters for one hour or longer on a mechanical shaker in 10 ml of Beckman Ready-Solv HP scintillation cocktail. […] The Hill coefficient was calculated by linear regression of the line obtained by plotting the log of the bound radioligand vs the log of the [formula] The maximal number of binding sites (Bmax) was calculated from the Scatchard plot.

Where [5] appears, read: Canis lupus familiaris, iv, 0.10 mg/kg IV, read-out: Percent Change Blood Pressure.
Where [6] appears, read: Canis lupus familiaris, iv, 0.10 mg/kg IV, read-out: Percent Change Heart Rate.
[7] abbreviates: Canis lupus familiaris, iv, 0.10 mg/kg IV, read-out: Percent Change Myocardial Contractility.
[8] abbreviates: Canis lupus familiaris, iv, read-out: Percent Change Heart Rate.
Where [9] appears, read: Canis lupus familiaris, iv, read-out: Percent Change Myocardial Contractility.
Setting [10] is: Canis lupus familiaris, iv, 3.10 mg/kg IV, read-out: Percent Change Heart Rate.
Setting [11] is: Canis lupus familiaris, iv, 3.10 mg/kg IV, read-out: Percent Change Myocardial Contractility.
[12] abbreviates: Canis lupus familiaris, iv, read-out: Percent Change Blood Pressure.

A word on the IC50: it is the concentration that gives 50% inhibition.

Structures are written as SMILES. Like-named read-outs stand apart in the source and are kept apart here.

As for `Cc1nn(C)c2c(=O)[nH]c(-c3ccncc3)nc12` [Example 2, 1,3-Dimethyl-5-(4-pyridyl)-pyrazolo[4,3-d]pyrimidine-7-one], the “% Inhibition of hydrolysis of 3H-cAMP” value in test [1] came out at 5%; in test [3], 20%. Besides, in test [1], the “% Inhibition of hydrolysis of 3H-cGMP” value stood at 13%. Further, the change in vivo at 0.1 mg/kg in test [2] (setting [5]) stood at 0%; in test [2] (setting [6]), 1%; in test [2] (setting [7]) it was 4%. Besides, the values for the change in vivo at 0.31 mg/kg in test [2] (setting [8]) and in test [2] (setting [9]) were 1% and 7%, respectively. Also, the change in vivo at 1 mg/kg in test [2] (setting [8]) was determined as 28%; in test [2] (setting [9]), 53%. Also, the change in vivo at 3.1 mg/kg in test [2] (setting [10]) amounted to 49%; in test [2] (setting [11]) it was 121%. Also, the IC50 in test [4] was determined as 953 nM.

On to `Cc1ccc(-c2nc3c(C)nn(C)c3c(=O)[nH]2)cc1` [Example 8, 1,3-Dimethyl-5-(4-methylphenyl)pyrazolo[4,3-d]pyrimidine-7-one], for which the “% Inhibition of hydrolysis of 3H-cAMP” value is listed as 14% in test [1] and 15% in test [3]. Further, the “% Inhibition of hydrolysis of 3H-cGMP” value in test [1] stood at 15%. Also, the change in vivo at 0.1 mg/kg in test [2] (setting [5]) is -1%; in test [2] (setting [6]), 5%; in test [2] (setting [7]) it was 7%. Further, the change in vivo at 0.3 mg/kg was found to be 0% in test [2] (setting [12]), 5% in test [2] (setting [8]) and 10% in test [2] (setting [9]). Besides, the change in vivo at 1 mg/kg was found to be 3% in test [2] (setting [12]), 6% in test [2] (setting [8]) and 20% in test [2] (setting [9]). Further, the change in vivo at 3.1 mg/kg in test [2] (Canis lupus familiaris, iv, 3.10 mg/kg IV, read-out: Percent Change Blood Pressure) was 3%; in test [2] (setting [10]), 10%; in test [2] (setting [11]), 22%. Also, the change in vivo at 10 mg/kg in test [2] (Canis lupus familiaris, iv, 10.00 mg/kg IV, read-out: Percent Change Myocardial Contractility) worked out at 82%. In addition, the half-inhibitory concentration (IC50) in test [4] was 417 nM.

As for `Cc1nn(C)c2c(=O)[nH]c(-c3ccc(Cl)c(Cl)c3)nc12` [Example 15, 1,3-Dimethyl-5-(3,4-dichlorophenyl)pyrazolol[4,3-d]-pyrimidine-7one], the “% Inhibition of hydrolysis of 3H-cAMP” value stood at 5% in test [1] and 0% in test [3]. In addition, in test [1], the “% Inhibition of hydrolysis of 3H-cGMP” value came to 3%. Besides, the “Percent Change Blood Pressure” value in test [2] (0.10 mg/kg IV) and in test [2] (3.10 mg/kg IV) was 1/2 in each case. For the same compound, the values for the change in vivo at 0.1 mg/kg in test [2] (setting [6]) and in test [2] (setting [7]) were 7% and 8%, respectively. The change in vivo at 0.31 mg/kg worked out at 7% in test [2] (setting [8]) and 10% in test [2] (setting [9]). The change in vivo at 1 mg/kg in test [2] (setting [8]) came to 9%; in test [2] (setting [9]), 13%. Besides, the change in vivo at 3.1 mg/kg in test [2] (setting [10]) came out at 12%; in test [2] (setting [11]), 13%. In addition, the IC50 in test [4] amounted to 887 nM.

In the case of `Cc1nn(C)c2c(=O)[nH]c(-c3ccc([N+](=O)[O-])cc3)nc12` [Example 9, 1,3-Dimethyl-5-(4-nitrophenyl)pyrazolo[4,3-d]pyrimidine-7-one], the “% Inhibition of hydrolysis of 3H-cAMP” value in test [1] amounted to 16%; in test [3] it was 1%. Further, in test [1], the “% Inhibition of hydrolysis of 3H-cGMP” value is recorded as 6%. For the same compound, the values for the change in vivo at 0.1 mg/kg in test [2] (setting [6]) and in test [2] (setting [7]) were 1% and 4%, respectively. Besides, the change in vivo at 0.31 mg/kg in test [2] (setting [8]) was 0%; in test [2] (setting [9]), 5%. In addition, the values for the change in vivo at 1 mg/kg in test [2] (setting [8]) and in test [2] (setting [9]) were -3% and 4%, respectively. Moreover, the results for the change in vivo at 3.1 mg/kg in test [2] (setting [10]) and in test [2] (setting [11]) were 1% and 2%, respectively. The concentration for half-maximal inhibition (IC50) in test [4] is 880 nM.

For `COc1ccc(-c2nc3c(C)nn(C)c3c(=O)[nH]2)c(OC)c1` [Example 17, 1,3-Dimethyl-5-(2,4-dimethoxyphenyl)pyrazolo[4,3-d]-pyrimidine-7-one], in test [1], the “% Inhibition of hydrolysis of 3H-cAMP” value is 15% and the “% Inhibition of hydrolysis of 3H-cGMP” value was 26%. The “% Inhibition of hydrolysis of 3H-cAMP” value in test [3] came out at 17%. For the same compound, the IC50 in test [4] stood at 5430 nM.

Regarding `Cc1nn(C)c2c(=O)[nH]c(-c3ccc(C(F)(F)F)cc3)nc12` [Example 10], in test [1], the “% Inhibition of hydrolysis of 3H-cAMP” value is listed as 12% and the “% Inhibition of hydrolysis of 3H-cGMP” value was determined as 1%. Besides, the “% Inhibition of hydrolysis of 3H-cAMP” value in test [3] was -9%. For the same compound, the half-maximal inhibitory concentration (IC50) in test [4] was found to be 463 nM.

With `Cc1nn(C)c2c(=O)[nH]c(-c3ccc(Cl)cc3)nc12` [Example 7, 1,3-Dimethyl-5-(4-chlorophenyl)pyrazolo[4,3-d]pyrimidne-7-one], in test [1], the “% Inhibition of hydrolysis of 3H-cAMP” value was 7% and the “% Inhibition of hydrolysis of 3H-cGMP” value is 11%. For the same compound, in test [3], the “% Inhibition of hydrolysis of 3H-cAMP” value was determined as 13%. The half-maximal inhibitory concentration (IC50) in test [4] amounted to 408 nM.
